Four compounds from publication PMC3876054, “Tyrosol and Its Analogues Inhibit Alpha-Melanocyte-Stimulating Hormone Induced Melanogenesis” (International Journal of Molecular Sciences, 2013) can be followed below.

Assay [1] deals with T1, mushroom tyrosinase (Agaricus bisporus, UniProt C7FF04).
T1 construct: gene PPO3
The assay can be described thus: spectrophotometric dopachrome assay with L-tyrosine; % inhibition at […]. As to conditions: read-out: % inhibition at 4 mM. The format is biochemical.

The target of assay [2] is T1, mushroom tyrosinase. Described as above. The class given is biochemical. As to conditions: read-out: % inhibition at 0.4 mM.

T1 sequence (C7FF04 2-392): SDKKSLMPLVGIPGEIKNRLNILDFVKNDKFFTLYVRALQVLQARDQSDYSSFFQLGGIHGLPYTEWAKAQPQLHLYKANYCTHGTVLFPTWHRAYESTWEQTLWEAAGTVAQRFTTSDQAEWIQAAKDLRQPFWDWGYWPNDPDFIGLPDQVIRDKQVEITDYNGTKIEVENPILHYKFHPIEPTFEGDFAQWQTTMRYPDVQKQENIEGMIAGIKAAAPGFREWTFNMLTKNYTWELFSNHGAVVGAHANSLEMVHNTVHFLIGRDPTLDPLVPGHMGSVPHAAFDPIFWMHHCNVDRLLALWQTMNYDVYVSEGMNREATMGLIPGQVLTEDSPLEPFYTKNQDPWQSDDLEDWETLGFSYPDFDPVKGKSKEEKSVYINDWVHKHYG

One may read the inhibition as the share of the control response that was lost under treatment. As for `OCCc1ccc(O)cc1` [compound 1, tyrosol], the inhibition at 4000 µM on mushroom tyrosinase [1] came to 42.5%. For `OCCc1cccc(O)c1` [compound 2, 2-(3-hydroxyphenyl)ethanol], the inhibition at 4000 µM at mushroom tyrosinase [1] is 45.3%.

Regarding `Cc1ccc(CCO)cc1` [compound 10, 2-(4-methylphenyl)ethanol], the inhibition at 4000 µM at mushroom tyrosinase [1] is 46.7%.

Take `OC[C@H]1O[C@@H](OCCc2ccc(O)cc2)[C@H](O)[C@@H](O)[C@@H]1O` [compound 11, salidroside]: on mushroom tyrosinase [2], the inhibition at 400 µM was determined as 22.2%.
